A value given as a limit tells only on which side of the number the result lay.

The assay deals with human PD-L1 / Human PD-1 (Homo sapiens (Human), UniProt Q9NZQ7). Kind of assay: Enzyme-Linked Immunosorbent Assay (ELISA), PD-1/PD-L1 binding. To be noted: plates coated with human PD-L1; biotinylated human PD-1; absorbance at 450 nm. Here is the method: 96 Well plates were coated with 1 μg/mL of human PD-L1 (obtained from R&D) in PBS overnight at 4° C. The wells were then blocked with 2% BSA in PBS (W/V) with 0.05% TWEEN-20 for 1 hour at 37° C. The plates were washed 3 times with PBS/0.05% TWEEN-20 and the compounds were serial diluted (1:5) in dilution medium and added to the ELISA plates. Human PD-1 and biotin 0.3 μg/mL (ACRO Biosystems) were added and incubated for 1 hour at 37° C. then washed 3 times with PBS/0.05% TWEEN-20. A second block was performed with 2% BSA in PBS (W/V)/0.05% TWEEN-20 for 10 min at 37° C. and the plates were washed 3 times with PBS/0.05% TWEEN-20. Streptavidin-HRP was added for 1 hour at 37° C. then the plates were washed 3 times with PBS/0.05% TWEEN-20. TMB substrate was added and reacted for 20 min at 37° C. A stop solution (2 N aqueous H2SO4) was added. The absorbance was read at 450 nm using a micro-plate spectrophotometer. The results are shown in Table 1: IC50 values are provided as follows: from 100 up to 10,000 nM (+); less than 100 nM (++).
Sequence of human PD-L1 / Human PD-1 (Q9NZQ7 19-239): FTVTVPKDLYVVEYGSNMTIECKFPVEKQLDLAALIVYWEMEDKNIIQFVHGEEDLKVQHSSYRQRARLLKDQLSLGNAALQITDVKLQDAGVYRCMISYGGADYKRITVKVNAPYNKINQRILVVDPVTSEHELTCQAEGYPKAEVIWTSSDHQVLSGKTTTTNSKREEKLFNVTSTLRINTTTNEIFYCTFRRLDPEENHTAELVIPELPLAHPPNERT
`CCOc1cc(O[C@H]2CCc3c(-c4cccc5c4CC[C@@H]5Oc4cc(OCC)c(CN(C)CCC(=O)OC)cc4Cl)cccc32)c(Cl)cc1CN(C)CCC(=O)OC` [Compound 1.043]: the IC50 is 100 to 10000 nM.

In turn, `CCOc1cc(O[C@H]2CCc3c(-c4cccc5c4CC[C@@H]5Oc4cc(OCC)c(CN[C@@](C)(CO)C(=O)O)cc4Cl)cccc32)c(Cl)cc1CN[C@@](C)(CO)C(=O)O` [Compound 1.044] had an IC50 below 100 nM.

The molecule `CCOc1cc(O[C@H]2CCc3c(-c4cccc5c4CC[C@@H]5Oc4cc(OCC)c(CN[C@@H](CO)C(=O)O)cc4Cl)cccc32)c(Cl)cc1CN[C@@H](CO)C(=O)O` [Compound 1.045] registered an IC50 below 100 nM.

As for `N#Cc1cncc(COc2cc(O[C@H]3CCc4c(-c5cccc6c5CC[C@@H]6Oc5cc(OCc6cncc(C#N)c6)c(CN[C@@H](CCO)C(=O)O)cc5Cl)cccc43)c(Cl)cc2CN[C@@H](CCO)C(=O)O)c1` [Compound 1.046], the IC50 was below 100 nM.

`CCOc1cc(O[C@H]2CCc3c(-c4cccc5c4CC[C@@H]5Oc4cc(OCC)c(CN[C@@H](CCO)C(=O)O)cc4Cl)cccc32)c(Cl)cc1CN[C@@H](CCO)C(=O)O` [Compound 1.047] showed a concentration for half-maximal inhibition (IC50) below 100 nM.

With `CCOc1cc(O[C@H]2CCc3c(-c4cccc5c4CC[C@@H]5Oc4cc(OCC)c(CN5CCC5(C)C)cc4Cl)cccc32)c(Cl)cc1CN1CCC1(C)C` [Compound 1.048], the IC50 was below 100 nM.

`CCOc1cc(O[C@H]2CCc3c(-c4cccc5c4CC[C@@H]5Oc4cc(OCC)c(CN(C)CCC(=O)O)cc4Cl)cccc32)c(Cl)cc1CN(C)CCC(=O)O` [Compound 1.049]: the IC50 is below 100 nM.

Take `CCOc1cc(O[C@H]2CCc3c(-c4cccc5c4CC[C@@H]5Oc4cc(OCC)c(CN5CC6(CC(O)C6)C5)cc4Cl)cccc32)c(Cl)cc1CN1CC2(CC(O)C2)C1` [Compound 1.050]: the IC50 is below 100 nM.

As to `C[C@@](CO)(NCc1cc(Cl)c(O[C@H]2CCc3c(-c4cccc5c4CC[C@@H]5Oc4cc(OCc5cncc(C#N)c5)c(CN[C@@](C)(CO)C(=O)O)cc4Cl)cccc32)cc1OCc1cncc(C#N)c1)C(=O)O` [Compound 1.051], the IC50 is below 100 nM.

Usually IC50 stands for the midpoint of a concentration-inhibition curve. The low end stands for greater potency in that assay, the high end for weaker potency in that assay.

Source of the values: US11872217B2, “Indanes as PD-L1 inhibitors” (CHEMOCENTRYX, INC., priority 2019, dated 2024).
